Experimental data from ChEMBL document CHEMBL1139337, “Syntheses and biological activities of fluorescent-labeled analogs of acylpolyamine toxin NPTX-594 isolated from the venom of Madagascar Joro spider” (2009).

These compounds were tested on Gryllus bimaculatus (assay: Induction of paralysis in Gryllus bimaculatus assessed as drug level causing paralysis per gram of cricket after 5 mins).
Type: functional
Work on `NCCCC[C@H](N)C(=O)NCCCNCCCNCCCCNC(=O)[C@H](CC(N)=O)NC(=O)Cc1cc(=O)oc2cc(O)ccc12` yielded an ED50 of 1.05 nmol.
`NCCCCNCC(=O)NCCCNCCCNCCCCNC(=O)[C@H](CC(N)=O)NC(=O)Cc1cc(=O)oc2cc(O)ccc12` was tested, and the ED50 was 0.136 nmol.
In the case of `NCCCCNCC(=O)NCCCNCCCNCCCCNC(=O)[C@H](CC(N)=O)NC(=O)c1cc2ccc(O)cc2oc1=O`, the ED50 is reported as 5.69 nmol.
Compound `NCCCC[C@H](N)C(=O)NCCCNCCCNCCCCNC(=O)[C@H](CC(N)=O)NC(=O)c1cc2ccc(O)cc2oc1=O` has an ED50 of 2.59 nmol.
Work on `NCCCC[C@H](N)C(=O)NCCCNCCCNCCCCNC(=O)[C@H](CC(N)=O)NC(=O)Cc1ccc(O)cc1O` yielded an ED50 of 0.175 nmol.
